How the values were obtained:
[1] = compound: C[C@@H]1COCCN1C2=NC(=NC(=C2)C3(CC3)[S@](=N)(=O)C)C4=C5C=CNC5=NC=C4 [AZD6738]; conditions: max 10 µM
Summary of the method: (§1)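 Following 24 hours at 37°C and 5% CO2, cancer cell lines in 1536-well plates with 7.5 μl DMEM/F12 or RPMI and 10% FBS were dosed for 72 hours, final DMSO typically being 0.2%. CellTiter-Glo 2.0 luminescence, scaled between blank-well and DMSO-well means, gave the viability readout. Dose responses were fitted to a two-parameter logistic curve with a non-linear mixed effects model, and the single-agent IC50 was derived from this fit.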

[2] = compound: CC(C)n1c(=O)n(C)c2cnc3cc(F)c(-c4ccc(OCCCN5CCCCC5)nc4)cc3c21 [AZD1390]; conditions: max 0.3 µM
Summary of the method: as §1

[3] = compound: CC(=O)Nc1cccc(-n2c(=O)n(C3CC3)c(=O)c3c(Nc4ccc(I)cc4F)n(C)c(=O)c(C)c32)c1 [Trametinib]; conditions: max 1 µM
Summary of the method: as §1

[4] = compound: C1CC(C1)(C(=O)[O-])C(=O)[O-].N.N.[Pt+2] [Carboplatin]; conditions: max 10 µM
Summary of the method: as §1

[5] = compound: C[C@@H](Oc1cc(-c2cnn(C3CCNCC3)c2)cnc1N)c1c(Cl)ccc(F)c1Cl [Crizotinib]; conditions: max 10 µM
Summary of the method: as §1

[6] = compound: CCN(CCO)CCCOc1ccc2c(Nc3cc(CC(=O)Nc4cccc(F)c4)[nH]n3)ncnc2c1 [AZD2811]; conditions: max 1 µM
Summary of the method: as §1

[7] = compound: COc1cc([C@@H]2c3cc4c(cc3[C@@H](O[C@@H]3O[C@@H]5CO[C@@H](C)O[C@H]5[C@H](O)[C@H]3O)[C@H]3COC(=O)[C@H]23)OCO4)cc(OC)c1O [Etoposide]; conditions: max 10 µM
Summary of the method: as §1

[8] = compound: COc1cccc2c1C(=O)c1c(O)c3c(c(O)c1C2=O)C[C@@](O)(C(=O)CO)C[C@@H]3O[C@H]1C[C@H](N)[C@H](O)[C@H](C)O1 [Doxorubicin]; conditions: max 1 µM
Summary of the method: as §1

[9] = compound: C=CCn1c(=O)c2cnc(Nc3ccc(N4CCN(C)CC4)cc3)nc2n1-c1cccc(C(C)(C)O)n1 [AZD1775]; conditions: max 3 µM
Summary of the method: as §1

[10] = compound: CC1=C(C(=CC=C1)Cl)NC(=O)C2=CN=C(S2)NC3=CC(=NC(=N3)C)N4CCN(CC4)CCO [Dasatinib]; conditions: max 2 µM
Summary of the method: as §1

[11] = compound: Nc1ccn([C@@H]2O[C@H](CO)[C@@H](O)C2(F)F)c(=O)n1 [Gemcitabine]; conditions: max 0.3 µM
Summary of the method: as §1

[12] = compound: Cc1cc2ncnn2cc1Nc1ncc2c(n1)n(C1CCOCC1)c(=O)n2C [AZD7648]; conditions: max 10 µM
Summary of the method: as §1

[13] = compound: O=c1[nH]cc(F)c(=O)[nH]1 [5-Fluorouracil]; conditions: max 20 µM
Summary of the method: as §1

[14] = compound: CN(C)CCCOc1ccc(-c2ccc3ncc4c(c3c2)n(C2CCOCC2)c(=O)n4C)cn1 [AZD0156]; conditions: max 3 µM
Summary of the method: as §1

[15] = compound: COc1cccc(OCCCN)c1-c1cc(Nc2cnc(C#N)cn2)n[nH]1 [Prexasertib]; conditions: max 1 µM
Summary of the method: as §1

[16] = compound: N#Cc1cnc(Nc2cc(NC[C@H]3CNCCO3)c(C(F)(F)F)cn2)cn1 [SRA737]; conditions: max 10 µM
Summary of the method: as §1

[17] = compound: COc1nnc2ccc(N3CCC(c4ccc(OCCN5CCN(C)C(=O)[C@H]5C)cc4)CC3)nn12 [AZD5153]; conditions: max 1 µM
Summary of the method: as §1

[18] = compound: CC(=O)c1c(C)c2cnc(Nc3ccc(N4CCNCC4)cn3)nc2n(C2CCCC2)c1=O [Palbociclib]; conditions: max 10 µM
Summary of the method: as §1

[19] = compound: Cc1nc(-c2cn3c(n2)-c2ccc(-c4cnn(C(C)(C)C(N)=O)c4)cc2OCC3)n(C(C)C)n1 [Taselisib]; conditions: max 10 µM
Summary of the method: as §1

[20] = compound: COc1cc2ncnc(Nc3ccc(F)c(Cl)c3)c2cc1OCCCN1CCOCC1 [Gefitinib]; conditions: max 10 µM
Summary of the method: as §1

[21] = compound: O=C(Nc1ccc2[nH]nc(-c3ccncc3)c2c1)[C@@H]1CCN(CC(=O)N2CCN(c3ccc(-c4ncccn4)cc3)CC2)C1; conditions: max 5 µM
Summary of the method: as §1

[22] = compound: C[C@@H](c1ccc2nccn2c1)n1nnc2ncc(-c3cnn(C)c3)nc21 [Savolitinib]; conditions: max 1 µM
Summary of the method: as §1

[23] = compound: Cn1cnc2c(F)c(Nc3ccc(Br)cc3Cl)c(C(=O)NOCCO)cc21 [Selumetinib]; conditions: max 10 µM
Summary of the method: as §1

[24] = compound: Cc1c2c(nn1C)CSCc1cc(n(C)n1)CSc1cc(c3ccccc3c1)OCCCc1c(C(=O)O)n(C)c3c-2c(Cl)ccc13 [AZD5991]; conditions: max 1 µM
Summary of the method: as §1

[25] = compound: NC1(c2ccc(-c3nc4ccn5c(=O)[nH]nc5c4cc3-c3ccccc3)cc2)CCC1 [MK-2206]; conditions: max 10 µM
Summary of the method: as §1

[26] = compound: CC1(C)CCC(CN2CCN(c3ccc(C(=O)NS(=O)(=O)c4ccc(NCC5CCOCC5)c([N+](=O)[O-])c4)c(Oc4cnc5[nH]ccc5c4)c3)CC2)=C(c2ccc(Cl)cc2)C1 [Venetoclax]; conditions: max 1 µM
Summary of the method: as §1

[27] = compound: O=C(c1cc(Cc2n[nH]c(=O)c3ccccc23)ccc1F)N1CCN(C(=O)C2CC2)CC1 [Olaparib]; conditions: max 10 µM
Summary of the method: as §1

[28] = compound: CC1=CN2[C@@H](C1)C=NC3=CC(=C(C=C3C2=O)OC)OCCCCCOC4=C(C=C5C(=C4)N=C[C@@H]6CC(=CN6C5=O)C)OC [SG3199]; conditions: max 0.001 µM
Summary of the method: as §1

[29] = compound: CS(=O)(=O)CCNCc1ccc(-c2ccc3ncnc(Nc4ccc(OCc5cccc(F)c5)c(Cl)c4)c3c2)o1 [Lapatinib]; conditions: max 10 µM
Summary of the method: as §1

[30] = compound: CCc1c2c(nc3ccc(O)cc13)-c1cc3c(c(=O)n1C2)COC(=O)[C@]3(O)CC [SN-38]; conditions: max 0.3 µM
Summary of the method: as §1

[31] = compound: CN(CC[C@H](CSC1=CC=CC=C1)NC2=C(C=C(C=C2)S(=O)(=O)NC(=O)C3=CC=C(C=C3)N4CCC(CC4)[C@H](C5=CC=CC=C5C6=CC=C(C=C6)Cl)O)S(=O)(=O)C(F)(F)F)CCO [AZD4320]; conditions: max 1 µM
Summary of the method: as §1

[32] = compound: C[C@@H](Nc1cc(F)cc(F)c1)c1cc(C(=O)N(C)C)cc2c(=O)cc(N3CCOCC3)oc12 [AZD8186]; conditions: max 10 µM
Summary of the method: as §1

[33] = compound: C1CN(CCC1(C(=O)N[C@@H](CCO)C2=CC=C(C=C2)Cl)N)C3=NC=NC4=C3C=CN4 [AZD5363]; conditions: max 10 µM
Summary of the method: as §1

[34] = compound: COc1cc(Nc2ncc3c(n2)-c2ccc(Cl)cc2C(c2c(F)cccc2OC)=NC3)ccc1C(=O)O [Alisertib]; conditions: max 10 µM
Summary of the method: as §1

[35] = compound: CC(=O)O[C@H]1C(=O)[C@@]2(C)[C@H]([C@H](OC(=O)c3ccccc3)[C@]3(O)C[C@H](OC(=O)[C@H](O)[C@@H](NC(=O)c4ccccc4)c4ccccc4)C(C)=C1C3(C)C)[C@]1(OC(C)=O)CO[C@@H]1C[C@@H]2O [Paclitaxel]; conditions: max 3 µM
Summary of the method: as §1

Cell Line: H4 (Low Grade Glioma)
- IC50, cell viability 72 h [1]: 3.6 µM
- IC50, cell viability 72 h [2]: > 0.3 µM
- IC50, cell viability 72 h [3]: > 1 µM
- IC50, cell viability 72 h [4]: > 10 µM
- IC50, cell viability 72 h [5]: 3 µM
- IC50, cell viability 72 h [6]: > 1 µM
- IC50, cell viability 72 h [7]: 2 µM
- IC50, cell viability 72 h [8]: 0.157 µM
- IC50, cell viability 72 h [9]: 0.108 µM
- IC50, cell viability 72 h [10]: > 2 µM
- IC50, cell viability 72 h [11]: 0.0223 µM
- IC50, cell viability 72 h [12]: > 10 µM
- IC50, cell viability 72 h [13]: 9.69 µM
- IC50, cell viability 72 h [14]: > 3 µM
- IC50, cell viability 72 h [15]: 0.0604 µM
- IC50, cell viability 72 h [16]: > 10 µM
- IC50, cell viability 72 h [17]: 0.164 µM
- IC50, cell viability 72 h [18]: 6.45 µM
- IC50, cell viability 72 h [19]: 3.68 µM
- IC50, cell viability 72 h [20]: > 10 µM
- IC50, cell viability 72 h [21]: > 5 µM
- IC50, cell viability 72 h [22]: > 1 µM
- IC50, cell viability 72 h [23]: > 10 µM
- IC50, cell viability 72 h [24]: > 1 µM
- IC50, cell viability 72 h [25]: > 10 µM
- IC50, cell viability 72 h [26]: > 1 µM
- IC50, cell viability 72 h [27]: > 10 µM
- IC50, cell viability 72 h [28]: > 0.001 µM
- IC50, cell viability 72 h [29]: > 10 µM
- IC50, cell viability 72 h [30]: 0.0233 µM
- IC50, cell viability 72 h [31]: > 1 µM
- IC50, cell viability 72 h [32]: 3.8 µM
- IC50, cell viability 72 h [33]: 6.25 µM
- IC50, cell viability 72 h [34]: 0.312 µM
- IC50, cell viability 72 h [35]: 0.0324 µM
